Structures can show the parent of a compound that is named as a salt.

In test [1] the test system is L6-myotubes. The test can be described thus: Glucose uptake (3H-2-deoxyglucose) in differentiated L6-myotubes. Type of test: cell-based. Conditions: compound at 10 µM (1×10^−5 M) vs isoproterenol at 10 µM, read-out: Biological example 1: glucose uptake, activity compared to that of isoproterenol. The method, then: L6-myoblasts were grown in Dulbecco's Modified Eagle's Medium (DMEM) containing 1 g/L glucose supplemented with 10% fetal bovine serum, 2 mM L-Glutamine, 50 U/ml penicillin, 50 μg/mL streptomycin and 10 mM HEPES. Cells were plated at 1×10^5 cells per mL in 24-well plates. After reaching 90% confluence the cells were grown in medium containing 2% FBS for 7 days where upon cells differentiated into myotubes. Differentiated L6-myotubes were serum-starved overnight in medium containing 0.5% fatty-acid free BSA and stimulated with an agonist, with a final concentration of 1×10^−5 M. After 1 h 40 min the cells were washed with warm glucose free medium or PBS twice and another portion of agonist was added to the glucose free medium. After 20 min the cells were exposed to 50 nM ^3H-2-deoxyglucose for another 10 min before washed in ice cold glucose free medium or PBS three times and lysed in 400 μL/well 0.2 M NaOH for 1 h at 60° C. The cell lysate was mixed with 4 mL scintillation buffer (Emulsifier Safe, Perkin Elmer) and the radioactivity was detected in a β-counter (Tri-Carb 4810TR, Perkin Elmer). The activity for each compound is compared to that of isoproterenol.

The test system of test [2] is L6-myotubes. The test can be described thus: Measurement of intracellular cAMP levels in differentiated L6 cells. It is filed as cell-based. Conditions: Rattus norvegicus, L6, 0.25 h, compound at 10 µM (1×10^−5 M), 15 min, vs isoproterenol at 10 µM, read-out: Biological example 2: intracellular cAMP levels, activity compared to that of isoproterenol. The method, then:
L6-myoblasts were grown in Dulbecco's Modified Eagle's Medium (DMEM) containing 1 g/L glucose supplemented with 10% fetal bovine serum, 2 mM L-Glutamine, 50 U/ml penicillin, 50 μg/mL streptomycin and 10 mM HEPES. Cells were plated at 1×10^5 cells per mL in 24-well plates. After reaching 90% confluence the cells were grown in medium containing 2% FBS for 7 days where upon cells differentiated into myotubes. Differentiated cells were serum-starved overnight and stimulated with an agonist, final concentration 1×10^−5 M, for 15 min in stimulation buffer (HBSS supplemented with 1% BSA, 5 mM HEPES and 1 mM IBMX, pH 7.4). The medium was aspirated and 100 μL of 95% EtOH was added to each well of the 24-well plate and cells were kept at −20° C. overnight. The EtOH was allowed to evaporate and 500 μL of lysis buffer (1% BSA, 5 mM HEPES and 0.3% Tween-20, pH 7.4) was added to each well. The plate was kept at −80° C. for 30 min and then at −20° C. until the day of detection when the samples were thawed. Intracellular cAMP levels were detected using an alpha screen CAMP kit (6760635D from Perkin Elmer). The activity for each compound is compared to that of isoproterenol.

For the compound `CS(=O)(=O)Nc1cccc(CC23CCC([C@H](O)c4cccc(F)c4)(CC2)N3)c1` [Example 27, N-(3-((4-((R)-(3-Fluorophenyl)(hydroxy)methyl)-7-azabicyclo-[2.2.1]heptan-1-yl)methyl)phenyl)methanesulfonamide], the Emax at 10 µM with L6-myotubes [1] is 50 to 75%; in the test with L6-myotubes [2], less than 25%.
For `CS(=O)(=O)Nc1cccc(CC23CCC([C@@H](O)c4cccc(F)c4)(CC2)N3)c1` [Example 28, N-(3-((4-((S)-(3-Fluorophenyl)(hydroxy)methyl)-7-azabicyclo[2.2.1]-heptan-1-yl)methyl)phenyl)methanesulfonamide] the same measures were 50 to 75% and less than 25%.
The corresponding values for `O[C@H](c1cncc(F)c1)C12CCC(C/C=C/c3ccccc3)(CC1)N2` [Example 29, (R)-(4-Cinnamyl-7-azabicyclo[2.2.1]heptan-1-yl)(5-fluoropyridin-3-yl)-methanol] are greater than 75% and less than 25%.
For `O[C@@H](c1cncc(F)c1)C12CCC(C/C=C/c3ccccc3)(CC1)N2` [Example 30, (S)-(4-Cinnamyl-7-azabicyclo[2.2.1]heptan-1-yl)(5-fluoropyridin-3-yl)-methanol] the same measures were 25 to 50% and less than 25%.
With `O[C@H](c1cccc(F)c1)C12CCC(C/C=C/c3ccccc3)(CC1)N2` [Example 31, (R)-(4-Cinnamyl-7-azabicyclo[2.2.1]heptan-1-yl)(3-fluorophenyl)methanol], the Emax at 10 µM with L6-myotubes [1] is greater than 75%; in the test on L6-myotubes [2], less than 25%.
For `O[C@@H](c1cccc(F)c1)C12CCC(C/C=C/c3ccccc3)(CC1)N2` [Example 32, (S)-(4-Cinnamyl-7-azabicyclo[2.2.1]heptan-1-yl)(3-fluorophenyl)methanol] the same measures were less than 25% and less than 25%.
The corresponding values for `O[C@H](c1cncc(F)c1)C12CCC(CCCc3ccccc3)(CC1)N2` [Example 33, (R)-(5-Fluoropyridin-3-yl)(4-(3-phenylpropyl)-7-azabicyclo[2.2.1]heptan-1-yl)methanol hydrochloride] are 50 to 75% and 25 to 50%.
The corresponding values for `O[C@@H](c1cncc(F)c1)C12CCC(CCCc3ccccc3)(CC1)N2` [Example 34, (S)-(5-Fluoropyridin-3-yl)(4-(3-phenylpropyl)-7-azabicyclo[2.2.1]heptan-1-yl)methanol hydrochloride] are 50 to 75% and less than 25%.
As for `O[C@H](c1cccc(F)c1)C12CCC(CCCc3ccccc3)(CC1)N2` [Example 35, (R)-(3-Fluorophenyl)(4-(3-phenylpropyl)-7-azabicyclo[2.2.1]heptan-1-yl)methanol hydrochloride], the Emax at 10 µM in the test on L6-myotubes [1] is greater than 75%; in the test on L6-myotubes [2], 25 to 50%.
For `O[C@@H](c1cccc(F)c1)C12CCC(CCCc3ccccc3)(CC1)N2` [Example 36, (S)-(3-Fluorophenyl)(4-(3-phenylpropyl)-7-azabicyclo[2.2.1]heptan-1-yl)methanol hydrochloride] the same measures were 25 to 50% and less than 25%.
For `O[C@H](c1cccc(F)c1)C12CCC(CCc3ccc(Cl)cc3)(CC1)N2` [Example 37, (R)-4-(4-Chlorophenethyl)-7-azabicyclo[2.2.1]heptan-1-yl)-(3-fluorophenyl)methanol acetate] the same measures were less than 25% and less than 25%.
The corresponding values for `O[C@@H](c1cccc(F)c1)C12CCC(CCc3ccc(Cl)cc3)(CC1)N2` [Example 38, (S)-(4-(4-Chlorophenethyl)-7-azabicyclo[2.2.1]heptan-1-yl)(3-fluoro-phenyl)methanol acetate] are less than 25% and less than 25%.
Consider `COc1ccc(CCC23CCC([C@H](O)c4cccc(F)c4)(CC2)N3)cc1` [Example 39, (R)-(3-Fluorophenyl)(4-(4-methoxyphenethyl)-7-azabicyclo[2.2.1]heptan-1-yl)methanol acetate], for which the results for the Emax at 10 µM with L6-myotubes [1] and in the test with L6-myotubes [2] were 50 to 75% and less than 25%, respectively.

Values taken from patent US20250223296A1, “HYDROXYMETHYL AZABICYCLO[2.2.1]HEPTANES AND MEDICAL USES THEREOF” (ATROGI AB, priority 2022, published 2025).
